The test deals with HL60 human leukaemia cell lines. In words: Antiproliferative activity by MTS assay (CellTiter 96 Aqueous One Solution). The following applies: HL-60, HL60 cells, 72 hr treatment, triplicate. It is filed as cell-based. Here is the method:
Antiproliferative activity was determined by MTS assay (Howell L A, Bowater R A, O'Connell M A, Reszka A P, Neidle S, Searcey M. (2012) Synthesis of Small Molecules Targeting Multiple DNA Structures using Click Chemistry. ChemMedChem, 7, 792-804) using the CellTiter 96 Aqueous One Solution Cell Proliferation Assay (Promega) and following the manufacturer's instructions.
The HL60 cell line was purchased from ECACC (Porton Down, UK). Cells were cultured in RPMI 1640 medium supplemented with 10% foetal calf serum and 2 mM L-glutamine. HL-60 cells were passaged twice weekly and maintained between 1-9×10^5 cells/ml at 37° C. and 5% CO2.
HL-60 cells (3×10^4/100 μl) were seeded in 96-well plates and left untreated or treated with DMSO (vehicle control), duocarmycins, or doxorubicin hydrochloride at 8 concentrations (see below) in triplicate for 72 hr at 37° C. with 5% CO2. Following this, MTS assay reagent was added for 4 hrs and the absorbance measured at 490 nm using the Polarstar Optima microplate reader (BMG Labtech). IC50 values were calculated using GraphPad Prism Version 5.0 software.

Structures can show the parent of a compound that is named as a salt.

For the compound `COc1cccc2c1C(=O)c1c(O)c3c(c(O)c1C2=O)C[C@@](O)(C(=O)CO)C[C@@H]3O[C@H]1C[C@H](N)[C@H](O)[C@H](C)O1` [Doxorubicin, doxorubicin hydrochloride], half-maximal inhibition (IC50) was put at 125 nM. In other words, the sub-micromolar range.
